Earlier results in patent US8071607B2, “Mnk1 or Mnk2 inhibitors” (Boehringer Ingelheim International GmbH, priority 2004, dated 2011).

How the values were obtained:
human Mnk2 protein = human Mnk2 protein (Homo sapiens, UniProt Q9HBH9); conditions: described in WO 02/103361
Mnk1 = Mnk1 (Homo sapiens, UniProt Q9BUB5); conditions: cell culture cells transfected with Mnk1
Mnk2 (Mnk2a or Mnk2b) = conditions: cell culture cells transfected with Mnk2 (Mnk2a or Mnk2b)

Sequence of human Mnk2 protein (Q9HBH9 whole entry): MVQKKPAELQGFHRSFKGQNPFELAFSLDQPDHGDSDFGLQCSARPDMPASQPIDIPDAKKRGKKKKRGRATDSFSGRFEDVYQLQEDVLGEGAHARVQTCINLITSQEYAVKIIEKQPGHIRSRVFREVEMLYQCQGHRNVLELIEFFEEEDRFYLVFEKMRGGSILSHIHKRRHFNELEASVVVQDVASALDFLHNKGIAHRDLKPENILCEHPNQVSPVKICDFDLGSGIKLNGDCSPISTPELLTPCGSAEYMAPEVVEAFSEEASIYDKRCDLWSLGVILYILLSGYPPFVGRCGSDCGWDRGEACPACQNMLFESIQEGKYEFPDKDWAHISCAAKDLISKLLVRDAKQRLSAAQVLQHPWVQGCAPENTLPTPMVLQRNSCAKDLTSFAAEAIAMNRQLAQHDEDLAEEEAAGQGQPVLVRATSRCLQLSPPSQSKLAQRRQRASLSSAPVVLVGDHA
Sequence of Mnk1 (Q9BUB5 whole entry): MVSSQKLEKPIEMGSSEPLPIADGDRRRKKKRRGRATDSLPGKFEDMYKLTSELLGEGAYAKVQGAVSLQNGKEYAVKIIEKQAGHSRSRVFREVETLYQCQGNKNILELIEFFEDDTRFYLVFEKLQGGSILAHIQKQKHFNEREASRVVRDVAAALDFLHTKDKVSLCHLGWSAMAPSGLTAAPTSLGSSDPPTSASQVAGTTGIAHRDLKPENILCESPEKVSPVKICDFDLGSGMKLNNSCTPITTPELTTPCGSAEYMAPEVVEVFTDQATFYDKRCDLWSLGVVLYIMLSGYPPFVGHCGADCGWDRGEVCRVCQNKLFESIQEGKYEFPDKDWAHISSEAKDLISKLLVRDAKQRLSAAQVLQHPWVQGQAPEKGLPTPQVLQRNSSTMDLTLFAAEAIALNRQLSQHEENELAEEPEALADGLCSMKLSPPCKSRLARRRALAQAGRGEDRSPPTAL

| binding to the human Mnk2 protein (human Mnk2 protein) | Structure (SMILES) | phosphorylated eIF4E (Mnk1) | phosphorylated eIF4E (Mnk2 (Mnk2a or Mnk2b)) |
| --- | --- | --- | --- |
| binds | COC(=O)c1ccc(O)cc1 [4-hydroxybenzoic acid methyl ester] | – | – |
| – | Nc1ncnc2n[nH]c(Nc3ccc(F)cc3)c12 [CGP57380] | strong reduction | strong reduction |
